Data from BindingDB's records for doi:10.1021/jm050825p (National Institute of Allergy and Infectious Diseases, 2006).

Tests used:
[1] = molecular target: T1, 3-oxoacyl-[acyl-carrier-protein] synthase 2 (Mycobacterium tuberculosis (strain ATCC 25618 / H37Rv), UniProt P9WQD7); assay: Inhibitory activity against KasB from Mycobacterium tuberculosis H37Rv
T1 sequence (P9WQD7 whole entry): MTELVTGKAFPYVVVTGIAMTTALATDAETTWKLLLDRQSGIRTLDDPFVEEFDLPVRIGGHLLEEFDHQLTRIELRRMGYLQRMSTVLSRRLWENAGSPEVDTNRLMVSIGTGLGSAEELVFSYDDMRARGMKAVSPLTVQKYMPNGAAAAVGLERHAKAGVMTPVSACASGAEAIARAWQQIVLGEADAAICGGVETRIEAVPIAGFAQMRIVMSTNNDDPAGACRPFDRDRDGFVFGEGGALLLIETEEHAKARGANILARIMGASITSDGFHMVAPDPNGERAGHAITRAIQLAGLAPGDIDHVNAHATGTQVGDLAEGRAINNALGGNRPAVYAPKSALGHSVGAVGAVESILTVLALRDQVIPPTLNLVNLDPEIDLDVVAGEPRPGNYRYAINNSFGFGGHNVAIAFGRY

[2] = molecular target: T2, 3-oxoacyl-[acyl-carrier-protein] synthase 3 (Mycobacterium tuberculosis (strain ATCC 25618 / H37Rv), UniProt P9WNG3); assay: Inhibitory activity against FabH from Mycobacterium tuberculosis H37Rv
T2 sequence (P9WNG3 whole entry): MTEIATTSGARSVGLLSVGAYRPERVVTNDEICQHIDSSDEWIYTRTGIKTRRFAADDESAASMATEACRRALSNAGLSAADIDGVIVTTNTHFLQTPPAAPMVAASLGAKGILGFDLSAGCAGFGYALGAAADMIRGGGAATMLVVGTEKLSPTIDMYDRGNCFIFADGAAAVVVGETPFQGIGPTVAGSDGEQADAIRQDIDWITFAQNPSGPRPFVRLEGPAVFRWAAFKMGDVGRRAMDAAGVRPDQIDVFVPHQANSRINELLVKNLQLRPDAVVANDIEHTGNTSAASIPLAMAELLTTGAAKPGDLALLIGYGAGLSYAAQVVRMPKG

[3] = molecular target: T3, 3-oxoacyl-[acyl-carrier-protein] synthase 1 (Escherichia coli (strain K12), UniProt P0A953); assay: Inhibitory activity against FabB from Escherichia coli ANSI
T3 sequence (P0A953 whole entry): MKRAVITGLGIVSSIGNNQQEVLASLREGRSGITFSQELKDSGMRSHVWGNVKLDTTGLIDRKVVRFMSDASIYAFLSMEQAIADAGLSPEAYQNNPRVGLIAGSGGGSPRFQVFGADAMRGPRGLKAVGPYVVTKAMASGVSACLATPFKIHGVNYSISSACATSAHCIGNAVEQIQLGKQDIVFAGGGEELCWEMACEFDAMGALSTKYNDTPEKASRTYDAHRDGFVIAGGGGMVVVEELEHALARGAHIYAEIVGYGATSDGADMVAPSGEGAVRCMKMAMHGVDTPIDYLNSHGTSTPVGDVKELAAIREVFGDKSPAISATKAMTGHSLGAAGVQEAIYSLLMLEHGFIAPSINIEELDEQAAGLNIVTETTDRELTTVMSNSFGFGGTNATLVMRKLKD

[4] = molecular target: T4, 3-oxoacyl-[acyl-carrier-protein] synthase 3 (Escherichia coli, UniProt C3TDZ2); assay: Inhibitory activity against FabH from Escherichia coli ANSI
T4 sequence (C3TDZ2 whole entry): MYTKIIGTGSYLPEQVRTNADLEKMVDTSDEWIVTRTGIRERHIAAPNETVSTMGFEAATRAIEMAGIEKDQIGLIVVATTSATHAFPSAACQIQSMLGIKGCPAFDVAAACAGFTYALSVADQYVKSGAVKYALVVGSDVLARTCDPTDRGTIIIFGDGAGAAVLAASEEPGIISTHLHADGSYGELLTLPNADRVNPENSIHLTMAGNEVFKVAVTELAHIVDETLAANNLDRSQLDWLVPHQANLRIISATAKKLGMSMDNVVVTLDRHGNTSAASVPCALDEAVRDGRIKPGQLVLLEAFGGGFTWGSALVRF

Row | SMILES | IC50 [1] [mM] | IC50 [2] [mM] | IC50 [3] [mM] | IC50 [4] [mM]
1 | COc1cccc(CC2(C)SC(=O)C(C)C2=O)c1 (stereo not given) [4-Hydroxy-5-(3-methoxy-benzyl)-3,5-dimethyl-5H-thiophen-2-one] | > 1 | > 1 | > 1 | > 1
2 | COc1ccc(CC2(C)SC(=O)C(C)C2=O)cc1 (stereo not given) [4-Hydroxy-5-(4-methoxy-benzyl)-3,5-dimethyl-5H-thiophen-2-one] | > 1 | > 1 | > 1 | > 1
3 | CC1C(=O)SC(C)(Cc2c(Cl)cccc2Cl)C1=O (stereo not given) [5-(2,6-dichlorobenzyl)-3,5-dimethyl-4-hydroxy-5H-thiophen-2-one] | > 1 | > 1 | > 1 | > 1
4 | CC1C(=O)SC(C)(Cc2ccccc2Cl)C1=O (stereo not given) [5-(2-chlorobenzyl)-3,5-dimethyl-4-hydroxy-5H-thiophen-2-one] | > 1 | > 1 | > 1 | > 1
5 | CC1C(=O)SC(C)(Cc2cccc(Cl)c2)C1=O (stereo not given) [5-(3-chlorobenzyl)-3,5-dimethyl-4-hydroxy-5H-thiophen-2-one] | > 1 | > 1 | > 1 | > 1
6 | CC1C(=O)SC(C)(Cc2ccc(Cl)cc2)C1=O (stereo not given) [5-(4-chlorobenzyl)-3,5-dimethyl-4-hydroxy-5H-thiophen-2-one] | > 1 | > 0.1 | > 1 | > 1
7 | CC1C(=O)SC(C)(Cc2ccc(C(C)(C)C)cc2)C1=O (stereo not given) [5-(4-tert-butylbenzyl)-3,5-dimethyl-4-hydroxy-5H-thiophen-2-one] | > 1 | > 0.1 | > 1 | > 1
8 | C=CCCC1(C)SC(=O)C(C)C1=O (stereo not given) [5-(but-3-enyl)-3,5-dimethyl-4-hydroxy-5H-thiophen-2-one] | > 1 | > 1 | > 1 | > 1
9 | CC1C(=O)SC(C)(CC2CCC2)C1=O (stereo not given) [5-cyclobutylmethyl-3,5-dimethyl-4-hydroxy-5H-thiophen-2-one] | > 1 | > 1 | > 1 | > 1
10 | CC1C(=O)SC(C)(CC2CCCCC2)C1=O (stereo not given) [5-cyclohexylmethyl-3,5-dimethyl-4-hydroxy-5H-thiophen-2-one] | > 1 | > 1 | > 1 | > 1
